The values that follow come from patent US8623856B2, “Phenoxy-azetidine derivatives as sphingosine 1-phosphate (S1P) receptor modulators” (Allergan, Inc., priority 2012, dated 2014).

One may read the EC50 as the concentration giving half of the maximal effect.

The test deals with T1, human S1P1 receptor (Homo sapiens, UniProt P21453).
T1 construct: expressed in transfected cells; host or cells: unnamed cell line stably expressing the S1P1 receptor; membranes were used
T1 sequence (P21453 whole entry): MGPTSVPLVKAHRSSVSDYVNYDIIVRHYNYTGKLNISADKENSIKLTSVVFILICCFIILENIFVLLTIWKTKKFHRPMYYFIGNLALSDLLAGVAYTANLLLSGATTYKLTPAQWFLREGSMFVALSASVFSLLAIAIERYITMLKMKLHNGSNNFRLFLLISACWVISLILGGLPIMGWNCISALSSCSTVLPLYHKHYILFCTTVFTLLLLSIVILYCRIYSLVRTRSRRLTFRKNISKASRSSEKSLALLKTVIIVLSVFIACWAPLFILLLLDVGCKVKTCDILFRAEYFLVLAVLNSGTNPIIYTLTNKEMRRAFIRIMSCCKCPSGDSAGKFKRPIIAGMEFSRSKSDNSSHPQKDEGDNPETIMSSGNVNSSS
Kind of test: GTP γ35S binding assay for S1P1 activity. The settings on record: membranes of cells stably expressing the S1P1 receptor, agonist activity potency. It is filed as biochemical. The method, then:
Compounds were synthesized and tested for S1P1 activity using the GTP γ^35S binding assay. These compounds may be assessed for their ability to activate or block activation of the human S1P1 receptor in cells stably expressing the S1P1 receptor. GTP γ^35S binding was measured in the medium containing (mM) HEPES 25, pH 7.4, MgCl2 10, NaCl 100, dithitothreitol 0.5, digitonin 0.003%, 0.2 nM GTP γ^35S, and 5 μg membrane protein in a volume of 150 μl. Test compounds were included in the concentration range from 0.08 to 5,000 nM unless indicated otherwise. Membranes were incubated with 100 μM 5′-adenylylimmidodiphosphate for 30 min, and subsequently with 10 μM GDP for 10 min on ice. Drug solutions and membrane were mixed, and then reactions were initiated by adding GTP γ^35S and continued for 30 min at 25° C. Reaction mixtures were filtered over Whatman GF/B filters under vacuum, and washed three times with 3 mL of ice-cold buffer (HEPES 25, pH7.4, MgCl2 10 and NaCl 100). Filters were dried and mixed with scintillant, and counted for ^35S activity using a β-counter. Agonist-induced GTP γ^35S binding was obtained by subtracting that in the absence of agonist. Binding data were analyzed using a non-linear regression method. In case of antagonist assay, the reaction mixture contained 10 nM S1P in the presence of test antagonist at concentrations ranging from 0.08 to 5000 nM.
(GTPγS resists hydrolysis and so accumulates on activated G proteins.)
In the case of `Cc1ccc(CC(CCCOc2ccc(CN3CC(C(=O)O)C3)cc2)c2cccc(F)c2F)cc1C` (stereo not shown) [1-(4-{([4-(2,3-difluorophenyl)-5-(3,4-dimethylphenyl)pentyl]oxy}benzyl)azetidine-3-carboxylic acid], the EC50 was 1.37 nM.
The same measure for `Cc1ccc(CC(CCCOc2ccc(CN3CC(C(=O)O)C3)cc2)c2cc(F)cc(F)c2)cc1C` (stereo not shown) [1-(4-{[4-(3,5-difluorophenyl)-5-(3,4-dimethylphenyl)pentyl]oxy}benzyl)azetidine-3-carboxylic acid]: 1.4 nM; for `Cc1ccc(CC(CCCOc2ccc(CN3CC(C(=O)O)C3)cc2)c2ccsc2)cc1C` (stereo not shown) [1-(4-{[5-(3,4-dimethylphenyl)-4-(3-thienyl)pentyl]oxy}benzyl)azetidine-3-carboxylic acid]: 5.7 nM; for `Cc1ccc(CC(CCOc2ccc(CN3CC(C(=O)O)C3)cc2)c2cccc(Cl)c2)cc1C` (stereo not shown) [1-{4-[3-(3-chlorophenyl)-4-(3,4-dimethylphenyl)butoxy]benzyl}azetidine-3-carboxylic acid]: 50.2 nM.
